Columns and labels:
[1] = biological target: GABA-A receptor; anion channel; test: Displacement of [3H]-diazepam from GABA-A benzodiazepine receptor of rat cerebral cortex; format: tissue-based
Mus musculus [2] = test: Ability to inhibit pentylenetetrazole (PTZ) induced convulsions in mice after peroral administration at 75 mg/Kg; […]; format: functional; conditions: po
Mus musculus [3] = test: Ability to inhibit pentylenetetrazole (PTZ) induced convulsions in mice after peroral administration at 90 mg/Kg; format: functional; conditions: po
Mus musculus [4] = test: Ability to facilitate pentylenetetrazole (PTZ) induced convulsions in mice after intravenously administration at 90 mg/Kg; Range is between (0.24-0.40); format: functional; conditions: iv
Mus musculus [5] = test: Ability to inhibit pentylenetetrazole (PTZ) induced convulsions in mice after intravenous administration at 75 mg/Kg; Range is between (0.34-0.73); format: functional
Mus musculus [6] = test: Ability to facilitate pentylenetetrazole (PTZ) induced convulsions n mice after intravenous administration at 90 mg/Kg; Range is between (0.09-0.50); format: functional
Mus musculus [7] = test: Ability to facilitate pentylenetetrazole (PTZ) induced convulsions n mice after peroral administration at 90 mg/Kg; Range is between (5.43-33.74); format: functional; conditions: po
Mus musculus [8] = test: Ability to facilitate pentylenetetrazole (PTZ) induced convulsions in mice after peroral administration at 50 mg/Kg; format: functional; conditions: po
Mus musculus [9] = test: Ability to facilitate pentylenetetrazole (PTZ) induced convulsions in mice after intravenously administration at 90 mg/Kg; Range is between (0.27-0.71); format: functional; conditions: iv
Mus musculus [10] = test: Ability to inhibit pentylenetetrazole (PTZ) induced convulsions in mice after intravenously administration at 75 mg/Kg; Range is between (0.62-1.62); format: functional; conditions: iv
Mus musculus [11] = test: Ability to inhibit pentylenetetrazole (PTZ) induced convulsions n mice after peroral administration at 125 mg/Kg; Range is between (2.70-7.09); format: functional; conditions: po
Mus musculus [12] = species: Mus musculus; test: animal or person; conditions: po

`Cc1cc(-n2[nH]c3c(cnc4ccccc43)c2=O)cs1` gave a Ki [1] of 0.316 nM, an ED50 (Mus musculus [2]) of 1.67 mg/kg and an ED50 (Mus musculus [3]) of 0.92 mg/kg.
In the case of `COC(=O)c1cc2c(cn1)[nH]c1ccccc12` [BETA-CCM], the Ki [1] is reported as 1.47 nM, the ED50 (Mus musculus [4]) is reported as 0.29 mg/kg and the ED50 (Mus musculus [5]) is reported as 0.49 mg/kg.
`O=C1C2C=Nc3ccccc3C2=NN1c1ccccc1` (centres undefined) [CGS-8216] gave an ED50 (Mus musculus [6]) of 0.2 mg/kg and an ED50 (Mus musculus [7]) of 12.8 mg/kg.
`CCOC(=O)c1cc2c(cn1)[nH]c1ccccc12` was tested, and the ED50 (Mus musculus [8]) was 37.5 mg/kg, the ED50 (Mus musculus [9]) was 0.46 mg/kg and the ED50 (Mus musculus [10]) was 1 mg/kg.
`Cc1ccc(-n2[nH]c3c(cnc4ccccc43)c2=O)s1` showed a Ki [1] of 0.32 nM and an ED50 (Mus musculus [11]) of 4.59 mg/kg.
`CN1C(=O)CN=C(c2ccccc2)c2cc(Cl)ccc21` [DIAZEPAM] gave an ED50 (Mus musculus [12]) of 0.67 mg/kg.
